Reference: US20070026090A1, “Treatment and prevention of inflammatory disease and mitochondrial dysfunction with high dose selenium” (priority 2003, published 2007)
Entries after “also recorded” stand apart in the source; their conditions may differ.

Key:
[1] = test system: mitochondrial respiration in colon tissue; assay: Mitochondrial respiration (oxygen consumption) in colon tissue of supplemented rats; assay type: in vivo, rat
Description: Mitochondrial respiration activity in colon tissue: Mitochondrial respiration was measured by direct assessment of oxygen consumption of the tissue. Briefly, colons were removed, chilled on ice, and washed extensively with cold PBS. Colon tissue samples (5-10 mm in width, 100 mg) were incubated at ambient temperature in PBS supplemented with 5 mM glucose. Oxygen consumption was measured polarographically using a computerized Clark-type oxygen electrode. The addition of the Electron Transport Chain (complex 1) inhibitor rotenone was used to determine whether the majority of oxygen consumption measured in the colon samples was mitochondrial respiration-dependent.

[2] = test system: NRF-1; assay: NRF1 mRNA in colon tissue (RT-PCR); assay type: in vivo, rat
Description: Mitochondrial (mt) TFA, NRF1, and cytochrome c mRNA analysis: Total RNA was extracted from 50 to 100 mg tissue at a time using 1 ml of Tri Reagent® (Sigma-Aldrich Corp., St. Louis, Mo.) according to manufacturer's instructions. First strand cDNA synthesis was carried out using reverse-iTTM First Strand Synthesis from Advanced Biotechnologies (ABgene®, ABgene, Epsom, U.K.) was used according to the manufacturer's instructions. Target sequences were amplified in the PCR reaction as follows: each tube contained 37 ng of cDNA from cytochrome c, GAPDH, or 18S, 3 μl of specific primers, 12.5 μl of ready Mix and 6.5 μl water DEPC (for a total 25 μl in each tube).
The PCR for cytochrome c, NRF1 and mtTFA was run at 95° C. for 5 min, 94° C. for 30 sec, 56° C. for 2 min, 72° C. for 1 min, back to stage 2 for 22, 26, 24 cycles, respectively, then 72° C. for 10 min, and 4° C. The products of the PCR were separated on a 1% agarose gel in TAE buffer with ethidium bromide. The electrophoresis took place in a BioRad device in 1×TAE buffer at 95 V for about 50 min (maximum mA). The size of the cDNA was determined by a 100-bp marker.
Rat NFR-1: (Antisense) 5′-[…]-3′ (SEQ ID No. 13) corresponding to nucleotides 450 to 469 of rat NFR-1 (GenBank Accession No. XM231566).
(Sense): 5′-[…] -3′ (SEQ ID No. 14). The expected PCR product was 461 bp, the actual 461 bp.

[3] = test system: GAPDH; assay: GAPDH housekeeping control transcript (RTPCR); assay type: cell-based, murine
Description: Reverse transcriptase-PCR (RTPCR): Total RNA was prepared and isolated by the Tri-Reagent method according to the manufacturer's protocol (Sigma, St. Louis Mo., USA). Total RNA (1 μg) was converted into cDNA using Reverse-iT first strand synthesis kit (Abgene, UK). Amplification of MnSOD and UCP2 sequences was performed by incubating 10 ng equivalents of DNA with the following oligonucleotide primers:
The sequence of glyceraldehyde-3-phosphate dehydrogenase (GAPDH) was amplified as a control using the following primers: Left (sense) 5′-[…]-3′(SEQ ID NO: 9) corresponding to nucleotides 364 to 382 of mouse mRNA (GenBank Accession No. XM 195823.21).
Right (antisense) 5′[…]-3′ (SEQ ID NO: 10) corresponding to nucleotides 683 to 703 of mouse mRNA (GenBank Accession No. XM 195823.21). The expected PCR product was 339 bp. Actual PCR product was approximately 340 bp, measured on 1.25% agarose gel in TAE containing ethidium bromide.
PCR was performed with 28 cycles (25 cycles for GAPDH) of 30 seconds at 96° C., 30 seconds at 58° C. and 1 min at 72° C. RTPCR products were analyzed on 1.3% (w/v) agarose gels.

[4] = test system: J774.2 macrophages; assay: Mitochondrial membrane potential (CMTMRos, flow cytometry); assay type: cell-based, murine; conditions: 10 μM; LPS + INFγ activated (FIG. 16B)
Description: Cell culture: Murine J774.2 macrophages (kindly provided by Prof. Dov Zipori from the Weizmann Institute of Science) were grown in RPMI medium supplemented with 10% (w/v) fetal calf serum, penicillin (100 U/ml), streptomycin (100 μg/ml) and 1× glutamine at 37° C. in a humidified atmosphere consisting of 95% air and 5% CO2. Experiments were performed on cells at 60% confluence.
Evaluation of mitochondrial membrane potential (MMP) in cells—MMP was detected by flow cytometry (FACSort, Becton Dickenson and Co., San Jose, Calif. USA) using the membrane potential-sensitive fluorescent probe MitoTracker Orange (CMTMRos) (Molecular Probes, Oregon, USA). The following fluorescence setting was used: excitation at 488 nm and emission at 575 nm (FL2 channel) (24,25). Macrophage cells (1 million cells/ml) were stained with 0.1 μM CMTMRos for 30 min at 37° C. Accumulation of the dye in the mitochondria was evaluated by flow cytometer analysis as described hereinabove. Data were collected from 10,000 cells.

[5] = test system: hapten (TNBS)-induced colitis
Description: Animals: Male Sprague-Dawley rats (approximately 150 g bw) received food and water ad libitum. They were kept in plastic cages with wire tops in a light-controlled room.
High-dose dietary selenium supplementation: Rats received food and (unsupplemented) water ad libitum (control group). Normal selenium (control) diet included 0.2 mg selenium/kg chow. […] The high-selenium diet provided approximately 2-3 μ/gm day of selenium per animal, which is considered an acceptable excess supplementation diet for this element (Davis et al., 1998; Shilo et al., 2003).
Induction of colitis and sample collection: Colitis was induced by administration of 0.5 ml of 2,4,6-trinitrobenzene sulphonic acid (TNBS, 100 mg/ml dissolved in 50% ethanol)through the anal canal, at a distance of 8 cm into the colon, just proximal to the splenic flexure. 24 hours after induction animals were sacrificed and the colon was removed for pathology, histocytological, biochemical or immunohistocytological analysis (Reifen et al., 2000).

[Se] [selenium]
hapten-induced impairment in oxygen consumption ([1]; 24 h after TNBS, supplemented vs unsupplemented (FIG. 5 C vs D), unsupplemented approximately 70% impairment): prevented a significant proportion | oxygen consumption in healthy colon tissue ([1]; healthy rats, supplemented vs unsupplemented (FIG. 5 B vs A)): little effect; also recorded: did not enhance | NRF-1 levels in colon tissue, colitis-induced rats ([2]; 24 h after TNBS, supplemented (FIG. 17 lane 4), unsupplemented nearly 50% reduction): surpass that of healthy control rats | NRF-1 levels in colon tissue, healthy rats ([2]; healthy supplemented rats (FIG. 17 lane 2)): significantly enhances | GADPH expression, activated macrophages ([3]; LPS + INFγ activated (FIG. 11)): No effect | GADPH RNA levels ([3]; resting J774.2 (FIGS. 9, 10)): No effect | mitochondrial membrane potential (MMP), activated macrophages [4]: downregulates | necrosis, share of the colon (gross pathology) ([5]; 24 h after TNBS, 3 weeks high-dose supplementation, unsupplemented rat more than 80%): less than 15% | effects on colon tissue of healthy, uninduced rats (gross pathology) ([5]; rat, in vivo): no apparent effects
